Consider 17 compounds from PubChem BioAssay (NCI).

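Five concentrations, 48 hours, 96-well plates. At the GI50, growth is halved. TGI marks complete inhibition of growth.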

Some test systems named below: HCT-15 colon; HOP-62 NSCLC; HT29 colon; NCI-H460 lung; RPMI-8226 leukemia; SK-MEL-5 melanoma; NCI-H226 lung; MDA-MB-231 breast; T-47D breast.
Common to all, as to assay: NCI-60 cell line screen, 48 h

With `COc1ccc(S(=O)(=O)N/N=C/CN2C(=O)c3ccccc3C2=O)cc1OC`, the TGI in the test with HCT-15 colon, in the test with HOP-62 NSCLC, in the test with HT29 colon, in the test on NCI-H460 lung, with RPMI-8226 leukemia and in the test on SK-MEL-5 melanoma was greater than 100 µM in each case.

For `Cn1ccnc1C(c1nccn1C)C(C)(C)[N+](=O)[O-]`, the TGI in the test with HCT-15 colon, with HOP-62 NSCLC, in the test on NCI-H460 lung, in the test on RPMI-8226 leukemia and in the test with SK-MEL-5 melanoma was greater than 100 µM each time.

Take `C=CCC12CCC(=O)C=C1CCC1(C2)OCCO1` (centres undefined): the TGI in the test on HCT-15 colon, in the test on HOP-62 NSCLC, in the test with NCI-H226 lung, in the test on NCI-H460 lung, with RPMI-8226 leukemia and with SK-MEL-5 melanoma was greater than 100 µM each time.

As for `COc1ccccc1/C=C1\CCC(CNc2ccc(Cl)cc2)C1=O` (centres undefined), the TGI with HCT-15 colon was 7.31 µM; with HOP-62 NSCLC, 22.9 µM; in the test on HT29 colon it was 22.9 µM; in the test with NCI-H226 lung, 28.3 µM; with NCI-H460 lung it was 20.9 µM; with RPMI-8226 leukemia it was 6.72 µM. For the same compound, the TGI in the test on SK-MEL-5 melanoma came out at 18.4 µM.

`N#CCCN(CCC#N)c1ccc(/C=C2\N=C(COc3ccc(Cl)cc3Cl)OC2=O)cc1`: the TGI in the test with HCT-15 colon, in the test with HOP-62 NSCLC, in the test with HT29 colon, in the test with NCI-H460 lung, with RPMI-8226 leukemia and in the test with SK-MEL-5 melanoma was greater than 100 µM in each case.

`CS(=O)(=O)N(CCC#N)c1ccc(/C=N/NC(=O)CC(=O)Nc2cccc(Cl)c2)cc1`: the TGI in the test with HCT-15 colon, in the test with HOP-62 NSCLC, in the test on HT29 colon, with NCI-H226 lung, in the test with NCI-H460 lung and in the test with RPMI-8226 leukemia was greater than 100 µM throughout. The same compound showed a TGI in the test with SK-MEL-5 melanoma greater than 100 µM.

In the case of `CNS(=O)(=O)NN(C)S(=O)(=O)c1ccc(Cl)cc1`, the TGI with HCT-15 colon, with HOP-62 NSCLC, in the test on HT29 colon, in the test on NCI-H226 lung, in the test with RPMI-8226 leukemia and with SK-MEL-5 melanoma was greater than 100 µM each time.

As for `CS(=O)(=O)OCCN1CCN(C(=O)c2cccc3c(Nc4ccc(S(N)(=O)=O)cc4)c4ccccc4nc23)CC1`, the TGI is greater than 60.6 µM in the test on HCT-15 colon; greater than 100 µM with HOP-62 NSCLC; greater than 100 µM in the test on HT29 colon; greater than 100 µM in the test on NCI-H226 lung; greater than 100 µM in the test with NCI-H460 lung; greater than 66.1 µM in the test on RPMI-8226 leukemia. Besides, in the test with SK-MEL-5 melanoma, the TGI was greater than 100 µM.

For `CCN(CC)c1ccc(N=C2C=CC(=O)c3ncccc32)c(C)c1`, the TGI with HCT-15 colon was 10.8 µM; with HOP-62 NSCLC, 37.2 µM; with HT29 colon it was 29.2 µM; with NCI-H226 lung, 38.8 µM; with NCI-H460 lung it was 21.8 µM; in the test with RPMI-8226 leukemia, greater than 100 µM. This compound also returned a TGI in the test on SK-MEL-5 melanoma of 18.4 µM.

On to `O=C(Nc1ncc(Cc2ccccc2)s1)c1ccc2c(c1)OCCCO2`, for which the GI50 in the test on HCT-15 colon is 0.376 µM; with HOP-62 NSCLC it was 0.73 µM; in the test with HT29 colon it was 0.361 µM; with MDA-MB-231 breast, 2.77 µM; with NCI-H226 lung it was 1.44 µM; with NCI-H460 lung it was 0.407 µM. Moreover, the GI50 with RPMI-8226 leukemia was 0.428 µM; in the test with SK-MEL-5 melanoma, 0.424 µM; in the test with T-47D breast, 0.541 µM. Also, the TGI with HCT-15 colon, in the test on HOP-62 NSCLC, in the test on HT29 colon, in the test with MDA-MB-231 breast, in the test on NCI-H226 lung and in the test with NCI-H460 lung was greater than 100 µM each time. The TGI in the test on SK-MEL-5 melanoma was 1.96 µM; in the test with T-47D breast it was greater than 100 µM.

Regarding `Oc1ccc2occ3c2c1CCC3`, the TGI in the test with HCT-15 colon, in the test on HOP-62 NSCLC, in the test on HT29 colon, in the test with NCI-H460 lung, in the test on RPMI-8226 leukemia and in the test with SK-MEL-5 melanoma was greater than 100 µM each time.

For `Cn1cc(NC(=O)c2cc(NC(=O)Nc3cc(C(=O)Nc4cc(C(=O)NCCC(=N)N)n(C)c4)n(C)c3)cn2C)cc1C(=O)NCCC(=N)N`, the TGI in the test on HCT-15 colon was greater than 100 µM; with HOP-62 NSCLC it was greater than 100 µM; in the test with HT29 colon it was greater than 100 µM; in the test on NCI-H460 lung it was 55.3 µM; in the test on SK-MEL-5 melanoma, 53.1 µM.

With `CCNc1c(C(=O)N(CC)CC)c(=O)[nH]c2ncccc12`, the TGI in the test on HCT-15 colon, in the test with HOP-62 NSCLC, in the test on HT29 colon, with NCI-H226 lung, in the test on NCI-H460 lung and in the test on RPMI-8226 leukemia was greater than 100 µM throughout. The TGI with SK-MEL-5 melanoma was greater than 100 µM.

Consider `CN(C)/C=C/c1nnnn1-c1ccc(Cl)cc1`, for which the GI50 with HCT-15 colon is 5.04 µM; with HOP-62 NSCLC, 11.4 µM; in the test on HT29 colon it was 20.2 µM; in the test on MDA-MB-231 breast, 16.1 µM; in the test with NCI-H226 lung, 15.6 µM; in the test with NCI-H460 lung it was 16.9 µM. In addition, the GI50 in the test with RPMI-8226 leukemia was 3.38 µM; with SK-MEL-5 melanoma, 15 µM. In addition, the TGI in the test with HCT-15 colon was 80 µM; with HOP-62 NSCLC it was 46.9 µM; in the test with HT29 colon, 45 µM; in the test with MDA-MB-231 breast, greater than 100 µM; with NCI-H226 lung it was 44.3 µM; in the test with NCI-H460 lung it was 37.3 µM. The figures for the TGI with RPMI-8226 leukemia and in the test with SK-MEL-5 melanoma were 18.5 µM and 35.4 µM, respectively.

In the case of `CC1CCC2(NC1)OC1CC3[C@@H]4CC=C5C=CCC[C@]5(C)C4CC[C@]3(C)C1C2C` (some centres undefined), the TGI in the test with HCT-15 colon is 48.8 µM; in the test with HOP-62 NSCLC, 36.6 µM; in the test on HT29 colon, 32.1 µM; with NCI-H226 lung it was greater than 100 µM; with NCI-H460 lung, 34.1 µM; in the test with RPMI-8226 leukemia it was 46 µM. In the test on SK-MEL-5 melanoma, the TGI stood at 30.8 µM.

In the case of `CC(C)COC(=O)N1N=NC2C3OC(CC3=O)C21` (centres undefined), the TGI in the test with HCT-15 colon, in the test with HOP-62 NSCLC, in the test with HT29 colon, in the test with NCI-H226 lung, in the test with NCI-H460 lung and in the test with RPMI-8226 leukemia was greater than 100 µM throughout. This compound returned a TGI in the test with SK-MEL-5 melanoma greater than 100 µM.

For `CC(=O)O[C@H]1CC[C@@]2(C)C(CC[C@]3(C)C2CC[C@]2(C)Oc4c(C)cc(O)cc4C[C@@H]23)C1(C)C` (some centres undefined), the TGI in the test on HCT-15 colon came out at 14.9 µM; with HOP-62 NSCLC, 30.6 µM; in the test on HT29 colon, 23.9 µM; with NCI-H226 lung, 35.3 µM; with NCI-H460 lung, 16.5 µM; in the test on RPMI-8226 leukemia it was 6.96 µM. The same compound returned a TGI with SK-MEL-5 melanoma of 18.4 µM.
